The record followed here is article doi:10.1101/2025.06.02.657523v1 (biorxiv, 2025).

By IC50 is commonly meant the concentration needed to halve the response being measured.

In this assay the target is RSK4 (Homo sapiens, UniProt Q9UK32). As to the kind of experiment: Kinase-Glo Plus luminescence kinase assay. The assay is classed as biochemical. Particulars: […] ATP, […] MgCl2, pH […] °C, […] min, […] DMSO.
RSK4, sequence (Q9UK32 whole entry): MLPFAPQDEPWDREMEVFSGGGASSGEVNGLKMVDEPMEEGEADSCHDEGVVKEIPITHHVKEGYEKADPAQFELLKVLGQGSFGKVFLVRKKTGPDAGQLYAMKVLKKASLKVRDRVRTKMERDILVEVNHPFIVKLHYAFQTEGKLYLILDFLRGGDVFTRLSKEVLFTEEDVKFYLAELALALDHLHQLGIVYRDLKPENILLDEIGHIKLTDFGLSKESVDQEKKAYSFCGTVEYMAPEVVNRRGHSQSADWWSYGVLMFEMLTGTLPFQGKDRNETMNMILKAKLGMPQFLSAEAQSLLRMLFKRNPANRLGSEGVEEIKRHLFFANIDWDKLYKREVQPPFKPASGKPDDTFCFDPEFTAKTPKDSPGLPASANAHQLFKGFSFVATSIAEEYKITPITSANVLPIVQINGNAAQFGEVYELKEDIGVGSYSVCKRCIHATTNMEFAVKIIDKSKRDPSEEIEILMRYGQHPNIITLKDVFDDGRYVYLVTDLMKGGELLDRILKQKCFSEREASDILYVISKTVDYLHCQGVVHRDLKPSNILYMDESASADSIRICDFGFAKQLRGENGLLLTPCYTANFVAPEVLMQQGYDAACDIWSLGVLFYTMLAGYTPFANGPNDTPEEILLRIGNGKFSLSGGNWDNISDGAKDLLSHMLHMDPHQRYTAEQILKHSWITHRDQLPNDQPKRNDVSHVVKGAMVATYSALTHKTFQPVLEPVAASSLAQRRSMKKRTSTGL

In the case of `Cc1cc(=O)n(C2CCC(F)(F)C2)c2nc(Nc3ccc4c(c3)CC(=O)N4)ncc12` (centres unmarked) [R634], the IC50 turned out to be 86.3 ± 40.7 nM.
Regarding `Cc1cc(=O)n(C2CCCCC2)c2nc(Nc3ccc4[nH]ccc4c3)ncc12` [R635, 2-((1H-indol-5-yl)amino)-8-cyclohexyl-5-methylpyrido[2,3-d]pyrimidin-7(8H)-one], the IC50 was 45.9 ± 3.11 nM.
